Laboratory results taken from ChEMBL document CHEMBL1201862, “PubChem BioAssay data set” (2004).
The source made the active and inactive calls.

Assays:
[1] = tested on: P388/ADR; test: cells; format: functional; conditions: Mus musculus
[2] = tested on: SN12K1; test: cells; format: functional; conditions: Homo sapiens
[3] = tested on: P388; test: cells; format: functional; conditions: Mus musculus
[4] = blockers of HIV-1 envelope-mediated cell-cell fusion – cherry-pick, dose response (AID 652057); format: functional, cell-based
[5] = target: T1, Fatty acid synthase (Homo sapiens, UniProt P49327); test: inhibition of human FAS-TE enzyme activity – biochemical, endpoint fluorescence intensity, uHTS hits, dose response (AID 624327); format: functional;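 further: fluorescence from hydrolysis of an O-methyl fluorescein acyl ester substrate by the enzyme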
[6] = target: T1, Fatty acid synthase; test: inhibition of human FAS-TE enzyme activity – biochemical, kinetic fluorescence intensity, dose response (AID 624326); format: functional;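 further: rate of fluorescence rise from hydrolysis of a fluorogenic O-methyl fluorescein ester substrate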
[7] = NIH-3T3 fibroblast cytotoxicity, dose response, cytotoxicity control, cell-based, fluorescence, Alamar Blue, secondary assay (AID 2327); format: functional;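 further: NIH-3T3 mouse fibroblasts cultured with fluconazole at 8 µg/mL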
[8] = fluconazole-exposed Candida albicans growth modulators – fluorescence, retest, confirmation (AID 2467); format: functional, cell-based
[9] = Trypanosoma cruzi growth suppression in host cells – NIH3T3 host cells, beta-gal luminescence, confirmation (AID 2044); format: functional, cell-based;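 further: intracellular parasites grown in NIH/3T3 mouse fibroblasts as host cells; luminescent beta-galactosidase reporter signal from transgenic T. cruzi replicating inside host cells; inhibitors lower the luminescence signal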
[10] = NIH3T3 cell viability loss – ATP luminescence, mouse fibroblasts, counter-screen, dose response (AID 2010); format: functional, cell-based;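 further: cells exposed to compound for about 90 hours before reading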
[11] = tested on: INS1; test: INS-1E survival protection against cytokine death – cell-based, luminescence, retest, dose response (AID 449756); format: functional; conditions: Rattus norvegicus;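 further: cell death triggered by IL-1 beta plus TNF-alpha plus IFN-gamma mixture; protective hits raise ATP signal compared with cytokine alone wells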
[12] = target: T2, Heat shock factor protein 1 (Mus musculus, UniProt P38532); test: enhancement of HSF1-driven luciferase signal – cell-based, NIH3T3, luminescence, dose retest, confirmation (AID 435004); format: functional;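 further: stress induced by proteasome inhibitor MG132 added 30 min after compound; luciferase reporter driven by HSF1 response element in NIH3T3 cells; actives raise luminescence as potentiators of the MG132 stress response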
T2 sequence (P38532 whole entry): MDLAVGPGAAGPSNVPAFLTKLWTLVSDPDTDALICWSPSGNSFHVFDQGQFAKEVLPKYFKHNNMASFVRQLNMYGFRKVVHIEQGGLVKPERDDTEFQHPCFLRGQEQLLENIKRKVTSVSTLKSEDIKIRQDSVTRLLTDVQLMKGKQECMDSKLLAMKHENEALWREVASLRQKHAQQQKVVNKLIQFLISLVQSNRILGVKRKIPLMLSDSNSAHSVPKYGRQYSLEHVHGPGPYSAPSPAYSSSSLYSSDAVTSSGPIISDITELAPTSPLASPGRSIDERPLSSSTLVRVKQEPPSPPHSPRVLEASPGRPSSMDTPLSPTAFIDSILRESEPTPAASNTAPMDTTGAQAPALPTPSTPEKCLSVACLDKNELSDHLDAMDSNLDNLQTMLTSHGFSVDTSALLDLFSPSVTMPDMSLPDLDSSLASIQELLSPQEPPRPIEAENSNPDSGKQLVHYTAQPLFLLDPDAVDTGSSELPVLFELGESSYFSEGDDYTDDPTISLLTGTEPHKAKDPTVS

[13] = target: Induced myeloid leukemia cell differentiation protein Mcl-1 (Homo sapiens, UniProt Q07820); format: functional
Induced myeloid leukemia cell differentiation protein Mcl-1, sequence (Q07820 whole entry): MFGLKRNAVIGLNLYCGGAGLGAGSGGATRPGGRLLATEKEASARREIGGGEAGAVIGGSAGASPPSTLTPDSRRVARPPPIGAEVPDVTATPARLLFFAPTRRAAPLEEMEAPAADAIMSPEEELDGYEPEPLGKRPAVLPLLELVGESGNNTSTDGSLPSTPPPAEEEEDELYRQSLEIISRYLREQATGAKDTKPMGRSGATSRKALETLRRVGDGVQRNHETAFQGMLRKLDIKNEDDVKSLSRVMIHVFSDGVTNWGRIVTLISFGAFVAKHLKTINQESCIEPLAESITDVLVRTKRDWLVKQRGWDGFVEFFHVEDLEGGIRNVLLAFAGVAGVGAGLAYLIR

T1 sequence (P49327 whole entry): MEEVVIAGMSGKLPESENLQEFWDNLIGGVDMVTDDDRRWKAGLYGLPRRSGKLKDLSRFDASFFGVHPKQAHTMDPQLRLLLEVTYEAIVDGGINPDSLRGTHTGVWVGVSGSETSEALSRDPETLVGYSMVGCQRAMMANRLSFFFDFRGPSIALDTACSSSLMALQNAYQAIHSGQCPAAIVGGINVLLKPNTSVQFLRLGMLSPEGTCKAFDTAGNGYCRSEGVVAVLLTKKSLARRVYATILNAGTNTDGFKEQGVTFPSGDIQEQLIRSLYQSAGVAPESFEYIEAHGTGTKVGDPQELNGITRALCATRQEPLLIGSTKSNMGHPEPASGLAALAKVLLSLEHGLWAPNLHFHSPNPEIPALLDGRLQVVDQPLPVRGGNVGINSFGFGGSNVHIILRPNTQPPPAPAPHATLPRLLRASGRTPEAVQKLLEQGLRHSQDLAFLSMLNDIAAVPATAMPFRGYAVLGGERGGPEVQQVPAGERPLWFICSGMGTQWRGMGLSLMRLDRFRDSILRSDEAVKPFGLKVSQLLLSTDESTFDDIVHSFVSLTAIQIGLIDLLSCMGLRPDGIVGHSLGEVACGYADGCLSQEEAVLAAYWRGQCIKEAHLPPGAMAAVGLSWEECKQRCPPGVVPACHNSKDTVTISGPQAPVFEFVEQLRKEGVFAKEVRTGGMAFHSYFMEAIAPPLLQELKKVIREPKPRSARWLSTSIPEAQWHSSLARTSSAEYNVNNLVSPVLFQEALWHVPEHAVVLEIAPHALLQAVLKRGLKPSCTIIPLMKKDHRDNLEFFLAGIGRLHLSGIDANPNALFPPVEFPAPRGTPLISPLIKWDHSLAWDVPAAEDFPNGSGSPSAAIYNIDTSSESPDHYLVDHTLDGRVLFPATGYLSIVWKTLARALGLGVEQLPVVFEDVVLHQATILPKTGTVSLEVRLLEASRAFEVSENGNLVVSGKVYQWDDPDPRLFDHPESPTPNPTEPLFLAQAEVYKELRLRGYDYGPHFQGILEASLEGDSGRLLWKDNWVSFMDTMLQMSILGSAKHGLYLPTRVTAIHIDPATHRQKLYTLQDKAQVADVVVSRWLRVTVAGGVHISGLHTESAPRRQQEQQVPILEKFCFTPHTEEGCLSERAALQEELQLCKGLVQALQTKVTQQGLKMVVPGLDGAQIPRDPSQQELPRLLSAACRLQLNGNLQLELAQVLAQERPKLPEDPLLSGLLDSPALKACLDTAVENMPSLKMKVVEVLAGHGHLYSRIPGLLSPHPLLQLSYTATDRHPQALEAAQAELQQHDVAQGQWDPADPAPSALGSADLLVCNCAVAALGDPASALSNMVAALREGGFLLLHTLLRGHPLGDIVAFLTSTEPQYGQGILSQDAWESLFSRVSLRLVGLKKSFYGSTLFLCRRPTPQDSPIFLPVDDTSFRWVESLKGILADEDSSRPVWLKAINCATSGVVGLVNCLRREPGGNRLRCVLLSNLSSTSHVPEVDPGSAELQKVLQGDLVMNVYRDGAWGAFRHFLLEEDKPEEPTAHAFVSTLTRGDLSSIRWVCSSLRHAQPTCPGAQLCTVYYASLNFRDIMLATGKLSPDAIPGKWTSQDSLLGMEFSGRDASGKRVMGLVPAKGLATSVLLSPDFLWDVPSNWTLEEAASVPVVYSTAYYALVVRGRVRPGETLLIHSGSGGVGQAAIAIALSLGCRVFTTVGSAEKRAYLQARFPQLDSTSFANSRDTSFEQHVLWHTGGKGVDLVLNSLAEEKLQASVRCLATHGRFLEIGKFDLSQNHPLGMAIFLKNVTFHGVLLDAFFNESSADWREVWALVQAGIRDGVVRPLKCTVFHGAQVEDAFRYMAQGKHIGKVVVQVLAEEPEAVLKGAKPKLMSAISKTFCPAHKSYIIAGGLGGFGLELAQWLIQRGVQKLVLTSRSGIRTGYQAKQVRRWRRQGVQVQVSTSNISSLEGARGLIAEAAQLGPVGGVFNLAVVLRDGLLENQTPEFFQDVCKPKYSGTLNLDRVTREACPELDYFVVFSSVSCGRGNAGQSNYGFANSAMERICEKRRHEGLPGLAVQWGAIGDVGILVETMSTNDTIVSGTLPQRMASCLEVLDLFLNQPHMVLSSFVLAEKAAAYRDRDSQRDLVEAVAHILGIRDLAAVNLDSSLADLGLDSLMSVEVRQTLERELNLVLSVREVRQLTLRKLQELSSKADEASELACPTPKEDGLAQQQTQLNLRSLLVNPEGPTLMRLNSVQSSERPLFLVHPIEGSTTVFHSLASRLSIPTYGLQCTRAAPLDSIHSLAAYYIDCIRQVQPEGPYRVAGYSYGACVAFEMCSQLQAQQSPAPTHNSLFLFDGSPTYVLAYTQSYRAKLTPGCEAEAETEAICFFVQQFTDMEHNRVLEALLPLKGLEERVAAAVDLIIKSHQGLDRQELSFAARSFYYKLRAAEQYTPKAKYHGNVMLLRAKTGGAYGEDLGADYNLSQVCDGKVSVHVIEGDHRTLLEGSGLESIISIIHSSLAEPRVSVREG

In the case of `CN(C)CCNC(=O)c1cccc2c1C(=O)c1ccccc1C2=O`, the GI50 [1] was 20.8 µM (inactive), the GI50 [2] was 49.5 µM (inactive) and the GI50 [3] was 19.7 µM (inactive).

For `COC1C(O)CC(OC2CC(Oc3cc4cc5c(c(O)c4c(O)c3C)C(=O)[C@@H](OC3CC(OC4CC(OC6CC(C)(O)C(OC(C)=O)C(C)O6)C(O)C(C)O4)C(O)C(C)O3)[C@H]([C@H](OC)C(=O)[C@@H](O)[C@@H](C)O)C5)OC(C)C2OC(C)=O)OC1C` (stereo partly specified) [CHROMOMYCIN], the GI50 [1] was 0.132 µM (active) and the GI50 [2] was 0.0034 µM (active).

With `CC(C)CC#Cc1ccc2c(c1)O[C@@H](CN(C)C(=O)C1CCCCC1)[C@H](C)CN([C@@H](C)CO)S2(=O)=O` the AC50 [4] was 27.8 µM (active).

In the case of `O=C1CC(N2CCN(c3ccc(S(=O)(=O)N4CCOCC4)cc3)CC2)C(=O)N1Cc1ccccc1` (stereo unspecified), the IC50 [5] was 8.79 µM (active) and the IC50 [6] was 7.53 µM (active).

With `CC1=CC2c3cccc4[nH]cc(c34)CC2N(C)C1` (stereo unspecified) the GI50 [1] was 14.2 µM (inactive), the GI50 [2] was 27.2 µM (inactive) and the GI50 [3] was 31 µM (inactive).

With `CCCCCCCC[n+]1cccc2c3ccccc3ccc21` the EC50 [7] was 69.2 µM (active), the EC50 [8] was 2.81 µM (active) and the EC50 [9] was 161 nM (active). For the same molecule, the EC50 [10] was 8.8 µM (active) and the AC50 [11] was 268 nM (active).

In the case of `Nc1ncc2c(n1)-c1ccccc1OC2`, the GI50 [2] was > 100 µM (inactive) and the GI50 [3] was > 100 µM (inactive).

For `COc1ccc(CC(=N)NOC(=O)c2cccc([N+](=O)[O-])c2)cc1`, the IC50 [5] was 18.3 µM (active) and the IC50 [6] was 14.6 µM (active).

With `COc1cc([C@@H]2c3cc4c(c(O[C@@H]5O[C@H]6CO[C@@H](C)O[C@H]6[C@H](O)[C@@H]5O)c3C[C@H]3COC(=O)[C@@H]32)OCO4)cc(OC)c1O` the GI50 [2] was 10.9 µM (inactive) and the GI50 [3] was 2.16 µM (inactive).

In the case of `CC(/C=N/N=C(N)N)=N\N=C(N)N`, the GI50 [1] was 0.519 µM (active), the GI50 [2] was 2.17 µM (inactive) and the GI50 [3] was 0.25 µM (active).

In the case of `Cc1c2c(cc3c1[nH]c1ccccc13)C(c1ccc(F)cc1)=NCC2`, the GI50 [1] was 0.448 µM (active), the GI50 [2] was 0.925 µM (active) and the GI50 [3] was 0.809 µM (active).

With `O=S(=O)(O)c1cc2ccc1/C=C\c1ccc(cc1S(=O)(=O)O)/N=N\c1ccc(c(S(=O)(=O)O)c1)/C=C\c1ccc(cc1S(=O)(=O)O)/N=N\2` the GI50 [1] was > 100 µM (inactive), the GI50 [2] was > 100 µM (inactive) and the GI50 [3] was > 100 µM (inactive).

For `COc1cccc(NC(=O)CN2C(=O)COc3ccc(S(=O)(=O)N4CCC(C)CC4)cc32)c1`, the EC50 [12] was > 260 µM (inactive), the IC50 [5] was 7.97 µM (active) and the IC50 [6] was 6.57 µM (active).

With `O=C1N/C(=N\c2ccccc2)S/C1=C\C=C\c1ccco1` the IC50 [13] was 12.2 µM (active).

For `Cc1ccc(N2C(=O)NC(=O)/C(=C/c3cnc(-c4ccccc4)nc3)C2=O)cc1C`, the IC50 [13] was 1.66 µM (active).

For `Sc1nc2cc(Cl)c3cccnc3c2o1`, the EC50 [7] was > 150 µM (inactive), the EC50 [8] was > 38 µM (not active) and the EC50 [12] was > 260 µM (inactive).

In the case of `O=C(CC1C[C@H](C(=O)N2CCOCC2)[C@@]2(CCC3CCCC3)c3[nH]c4ccccc4c3CCN2C1=O)NCCCn1ccnc1` (stereo partly specified), the IC50 [5] was 4.37 µM (active) and the IC50 [6] was 2.7 µM (active).
